# Test system: Jatropha curcas zygotic embryo and endosperm explants
# Assay: Type I somatic embryo (TISE) formation on solid media with 2,4-D
# Type: cell-based
# Conditions: for TISE (%) / TISE Count: 0.1 mg/l kinetin, 8 weeks
# Experimental: Developing fruits were surfaced sterilized. The immature zygotic embryos and endosperms (En) were separated from each other using a surgical scalper blade. Zygotic embryos longer than 0.5 cm were further cut at the cotyledon-hypocotyl junction to produce explants of cotyledons only and hypocotyls with the root radicals. Zygotic embryos shorter than 0.5 cm were cultured intact as they are too fragile. We classified these explants as cotyledons (Cot); hypocotyls with root radicals (Rh); intact embryos (Eb) and endosperm (En).
# The explants were cultured on a solid medium comprising MS salt, B5 vitamins and various concentrations of 2,4-D ranging from 0.1 to 20 mg/L. Kinetin was added at 0.1 mg/L in some of the treatments. Somatic embryos started to emerge without obvious sign of calli formation around 10th day, which predominantly formed on the edge of the endosperm tissues where the embryo had been detached. The somatic embryos most likely originated from the residual diploid cells of the zygotic embryo tissue attached on the endosperm. […] These somatic embryos developed speedily and predominantly matured as single embryo (FIG. 1). We called them Type I Somatic Embryo (TISE).
compound,measurement,setting,value
"O=C(O)COc1ccc(Cl)cc1Cl [2,4-D, 2,4-dichlorophenoxyacetic acid]",TISE (%),"2,4-D 0.1 mg/L",84%
same,TISE Count,"2,4-D 0.1 mg/L, 19 explants",16
same,TISE (%),"2,4-D 0.2 mg/L",54%
same,TISE Count,"2,4-D 0.2 mg/L, 28 explants",15
same,TISE (%),"2,4-D 0.5 mg/L",50%
same,TISE Count,"2,4-D 0.5 mg/L, 16 explants",8
same,TISE (%),"2,4-D 1 mg/L",42%
same,TISE Count,"2,4-D 1 mg/L, 19 explants",8
same,TISE (%),"2,4-D 2 mg/L",76%
same,TISE Count,"2,4-D 2 mg/L, 25 explants",19
same,TISE (%),"2,4-D 5 mg/L",57%
same,TISE Count,"2,4-D 5 mg/L, 23 explants",13
same,TISE (%),"2,4-D 10 mg/L",43%
same,TISE Count,"2,4-D 10 mg/L, 21 explants",9
same,TISE (%),"2,4-D 20 mg/L",38%
same,TISE Count,"2,4-D 20 mg/L, 13 explants",5
same,TISE formation,"2,4-D 0.1 to 20 mg/L",appeared to be inhibitory at high levels

# From patent US8691576B2, “Regeneration and mass propagation of Jatropha curcas through somatic embryogenesis” (Joil (S) Pte Ltd., priority 2008, dated 2014)
